pIC50: −log10 of the molar value. Values belong to the compound of their own block, whether it stands above or below them.
Key:
[1] = system: COLO205 xenograft tumors; assay: Tumor growth inhibition in COLO205 xenograft tumors; assay type: in vivo; conditions: 30 mg/kg; for Average Tumor Volume D0: D0, in mm³; for Average Tumor Volume D21: D21, in mm³
Method: COLO205 cells were cultured with RPMI-1640 medium containing 10% fetal bovine serum (FBS) at 37° C. in 5% CO2 incubator. Logarithmic growth phase cells were collected. COLO205 cells (5×10^6 in 200 μL PBS) were implanted subcutaneously into the left flank region, and tumor growth was monitored. Tumor volume (V) was estimated from the length (l) and width (w) of the tumor using the following formula: V=1/2×l×w^2. Treatment started when average tumor size was 100-150 mm^3. Measuring subcutaneous tumor volume 2 to 3 times every week. Drug efficacy was assessed as Tumor Growth Inhibition (TGI) and Tumor increment rate T/C (%). TGI was defined as (1−T/C)×100%, wherein T/C (%) presented the ratio of the change in mean tumor volume of the treated group and of the control group.

[2] = system: BE(2)-C cell; assay: Cell proliferation assay (MTS) in BE(2)-C cells; assay type: cell-based; conditions: Homo sapiens, inhibition of BE(2)-C cell proliferation, 48 h
In short: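 Proliferation read-out was MTS absorbance at 490 nm, with 650 nm as reference, after a 2 h MTS incubation, giving IC50 values. Before reading, BE(2)-C cells plated at 3000 per well were exposed to nine compound concentrations from 10000 down to 1.5 nM for 48 h at 37 °C, 5% CO2.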

[3] = biological target: T1, CDK2/cyclin A (Homo sapiens, UniProt P24941); assay: CDK kinase inhibition assay (33P-ATP HotSpot filter binding); assay type: biochemical; conditions: substrate Histone H1, 10 μM ATP
T1 construct: purchased Invitrogen PR4448B
Method: (§1) Testing compounds were dissolved in 100% DMSO to specific concentration. Compounds were tested in 10-dose mode with 3-fold serial dilution starting at 100 μM. The serial dilution was conducted by epMotion 5070 in DMSO.
(§2) Each substrate was prepared in freshly prepared Reaction Buffer (20 mM Hepes (pH 7.5), 10 mM MgCl2, 1 mM EGTA, 0.02% Brij35, 0.02 mg/ml BSA, 0.1 mM Na3VO4, 2 mM DTT, 1% DMSO). Each kinase was delivered into the substrate solution and the solution was gently mixed. 0.05 μL Compounds were delivered into 5 μL kinase reaction mixture in a 384 well plate by Acoustic technology (Echo550; nanoliter range), and the mixture was incubated for 20 min at room temperature. 0.01 μL of 5 mM ATP with ^33P-ATP (PerkinElmer, Cat# NEG602H001MC, Specific activity […]) was delivered into the reaction mixture to initiate the reaction, and the final concentration of ATP in the mixture was 10 μM. The resulted solutions were incubated for 2 hours at room temperature, the radioactivity incorporated is determined by the proprietary “HotSpot” platform, which is a miniaturized filter-binding method (using this paper as reference: Anastassiadis et al, 2011 Nature Biotech) IC50 value of each compound was generated using GraphPad Prism software.
(§3) Select compounds prepared as described above were assayed according to the biological procedures described herein.

[4] = biological target: T2, CDK1/cyclin B (Homo sapiens, UniProt P06493); assay: as above; assay type: biochemical; conditions: substrate Histone H1, 10 μM ATP
T2 construct: purchased Invitrogen PR4768C
T2 sequence (P06493 whole entry): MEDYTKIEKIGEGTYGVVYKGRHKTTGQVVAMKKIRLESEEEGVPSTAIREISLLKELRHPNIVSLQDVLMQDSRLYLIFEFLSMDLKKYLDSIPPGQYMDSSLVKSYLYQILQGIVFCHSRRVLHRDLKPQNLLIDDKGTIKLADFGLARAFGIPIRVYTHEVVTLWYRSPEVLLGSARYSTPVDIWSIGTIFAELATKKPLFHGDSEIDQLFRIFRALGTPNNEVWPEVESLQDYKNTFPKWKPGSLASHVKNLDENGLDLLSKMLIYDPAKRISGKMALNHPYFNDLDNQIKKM
T2 sequence (P14635 whole entry partner): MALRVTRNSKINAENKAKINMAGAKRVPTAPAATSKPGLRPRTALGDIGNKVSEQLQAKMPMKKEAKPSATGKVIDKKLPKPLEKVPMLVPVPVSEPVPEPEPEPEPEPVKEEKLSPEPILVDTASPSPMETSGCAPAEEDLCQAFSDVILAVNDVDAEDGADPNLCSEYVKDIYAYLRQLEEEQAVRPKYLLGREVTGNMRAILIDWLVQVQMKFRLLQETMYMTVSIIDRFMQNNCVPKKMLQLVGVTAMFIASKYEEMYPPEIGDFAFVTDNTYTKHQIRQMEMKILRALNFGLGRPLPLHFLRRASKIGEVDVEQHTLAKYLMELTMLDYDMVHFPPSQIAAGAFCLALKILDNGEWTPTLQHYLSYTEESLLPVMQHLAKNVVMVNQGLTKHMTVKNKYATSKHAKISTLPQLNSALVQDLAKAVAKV
Method: as §1, §2, §3

[5] = biological target: T3, CDK4/cyclin D1 (Homo sapiens, UniProt P11802); assay: as above; assay type: biochemical; conditions: substrate RB Protein, 10 μM ATP
T3 construct: purchased Invitrogen PV4436
T3 sequence (P11802 whole entry): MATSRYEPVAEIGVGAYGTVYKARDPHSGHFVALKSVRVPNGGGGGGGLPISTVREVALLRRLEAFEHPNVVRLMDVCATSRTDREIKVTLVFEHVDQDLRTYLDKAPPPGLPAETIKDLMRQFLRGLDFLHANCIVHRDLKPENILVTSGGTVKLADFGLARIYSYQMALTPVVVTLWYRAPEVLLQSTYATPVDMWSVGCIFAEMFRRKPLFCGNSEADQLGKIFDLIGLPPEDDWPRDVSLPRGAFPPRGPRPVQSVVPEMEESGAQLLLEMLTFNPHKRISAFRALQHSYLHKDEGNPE
T3 sequence (P24385 whole entry partner): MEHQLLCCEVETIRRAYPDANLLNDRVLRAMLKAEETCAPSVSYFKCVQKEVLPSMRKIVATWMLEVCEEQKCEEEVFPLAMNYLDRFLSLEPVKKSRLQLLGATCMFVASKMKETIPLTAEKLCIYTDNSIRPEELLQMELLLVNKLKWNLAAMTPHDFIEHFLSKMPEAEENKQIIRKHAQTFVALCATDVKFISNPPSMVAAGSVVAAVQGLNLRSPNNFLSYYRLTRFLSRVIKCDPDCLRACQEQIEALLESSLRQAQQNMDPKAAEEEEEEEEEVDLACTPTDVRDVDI
Method: as §1, §2, §3

[6] = biological target: T4, CDK6/cyclin D1 (Homo sapiens, UniProt Q00534); assay: as above; assay type: biochemical; conditions: substrate RB Protein, 10 μM ATP
T4 construct: purchased Invitrogen PR8422B
T4 sequence (Q00534 whole entry): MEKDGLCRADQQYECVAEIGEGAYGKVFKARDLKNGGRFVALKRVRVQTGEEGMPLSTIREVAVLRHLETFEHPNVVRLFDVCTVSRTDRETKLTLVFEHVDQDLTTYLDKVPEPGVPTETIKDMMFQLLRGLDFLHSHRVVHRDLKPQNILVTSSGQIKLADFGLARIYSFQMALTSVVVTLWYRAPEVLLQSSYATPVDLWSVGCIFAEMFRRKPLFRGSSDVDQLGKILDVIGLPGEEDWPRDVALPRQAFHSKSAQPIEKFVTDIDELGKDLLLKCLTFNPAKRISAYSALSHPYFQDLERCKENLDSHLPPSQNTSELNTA
T4 sequence (P24385 whole entry partner): as the sequence (P24385 whole entry partner) above
Method: as §1, §2, §3

Structure (SMILES): CN1CCN(Cc2ccc(Nc3ncc(F)c(-c4cc(F)c5nc6n(c5c4)[C@H](C(F)F)CC6)n3)nc2)CC1 [Example 11, (S)-4-(1-(difluoromethyl)-5-fluoro-2,3-dihydro-1H-benzo[d]pyrrolo[1,2-a]imidazol-7-yl)-5-fluoro-N-(5-((4-methylpiperazin-1-yl)methyl)pyridin-2-yl)pyrimidin-2-amine]
Average Tumor Volume D0 [1]: 110 ± 3.2 | T/C % D21 [1]: 28% | TGI % D21 [1]: 72% | Average Tumor Volume D21 [1]: 570 ± 57 | pIC50 [2]: 7.00 to 8.00

pIC50 [3]: 7.30 | pIC50 [4]: 6.39 | pIC50 [5]: > 8.30 | pIC50 [6]: > 8.30
Structure (SMILES): CCN1CCN(Cc2ccc(Nc3ncc(F)c(-c4cc(F)c5nc6n(c5c4)[C@H](C(F)F)CC6)n3)nc2)CC1 [Example 12, (S)-4-(1-(difluoromethyl)-5-fluoro-2,3-dihydro-1H-benzo[d]pyrrolo[1,2-a]imidazol-7-yl)-N-(5-((4-ethylpiperazin-1-yl)methyl)pyridin-2-yl)-5-fluoropyrimidin-2-amine]
Average Tumor Volume D0 [1]: 113 ± 3.4 | T/C % D21 [1]: 29% | TGI % D21 [1]: 71% | Average Tumor Volume D21 [1]: 584 ± 86 | pIC50 [2]: 7.00 to 8.00

pIC50 [3]: 7.72 | pIC50 [4]: 7.30 | pIC50 [5]: > 8.30 | pIC50 [6]: > 8.30
Structure (SMILES): CN1CCN(c2ccc(Nc3ncc(F)c(-c4cc(F)c5nc6n(c5c4)[C@H](C(F)F)CC6)n3)nc2)CC1 [Example 39, (S)-4-(1-(difluoromethyl)-5-fluoro-2,3-dihydro-1H-benzo[d]pyrrolo[1,2-a]imidazol-7-yl)-5-fluoro-N-(5-(4-methylpiperazin-1-yl)pyridin-2-yl)pyrimidin-2-amine]
pIC50 [2]: < 7.00

Structure (SMILES): CN1CC2CCC(C1)N2Cc1ccc(Nc2cc(-c3cc(F)c4nc5n(c4c3)C(C)(C)CC5)c(F)cn2)nc1 [Example 162, 5-fluoro-4-(5-fluoro-1,1-dimethyl-2,3-dihydro-1H-benzo[d]pyrrolo[1,2-a]imidazol-7-yl)-N-(5-((3-methyl-3,8-diazabicyclo[3.2.1]octan-8-yl)methyl)pyridin-2-yl)pyridin-2-amine]
pIC50 [2]: < 6.00

Structure (SMILES): CCN1CC2CCC(C1)N2Cc1ccc(Nc2cc(-c3cc(F)c4nc5n(c4c3)C(C)(C)CC5)c(F)cn2)nc1 [Example 163, N-(5-((3-ethyl-3,8-diazabicyclo[3.2.1]octan-8-yl)methyl)pyridin-2-yl)-5-fluoro-4-(5-fluoro-1,1-dimethyl-2,3-dihydro-1H-benzo[d]pyrrolo[1,2-a]imidazol-7-yl)pyridin-2-amine]
pIC50 [2]: < 6.00

Structure (SMILES): CC1(C)CCc2nc3c(F)cc(-c4cc(Nc5ncc(CN6CCNCC6)cn5)ncc4F)cc3n21 [Example 164, N-(5-fluoro-4-(5-fluoro-1,1-dimethyl-2,3-dihydro-1H-benzo[d]pyrrolo[1,2-a]imidazol-7-yl)pyridin-2-yl)-5-(piperazin-1-ylmethyl)pyrimidin-2-amine]
pIC50 [2]: 7.00 to 8.00

Structure (SMILES): CN1CCN(Cc2cnc(Nc3cc(-c4cc(F)c5nc6n(c5c4)C(C)(C)CC6)c(F)cn3)nc2)CC1 [Example 165, N-(5-fluoro-4-(5-fluoro-1,1-dimethyl-2,3-dihydro-1H-benzo[d]pyrrolo[1,2-a]imidazol-7-yl)pyridin-2-yl)-5-((4-methylpiperazin-1-yl)methyl)pyrimidin-2-amine]
pIC50 [2]: < 7.00

Structure (SMILES): CCN1CCN(Cc2cnc(Nc3cc(-c4cc(F)c5nc6n(c5c4)C(C)(C)CC6)c(F)cn3)nc2)CC1 [Example 166, 5-((4-ethylpiperazin-1-yl)methyl)-N-(5-fluoro-4-(5-fluoro-1,1-dimethyl-2,3-dihydro-1H-benzo[d]pyrrolo[1,2-a]imidazol-7-yl)pyridin-2-yl)pyrimidin-2-amine]
pIC50 [2]: < 7.00

Structure (SMILES): CC1(C)CCc2nc3ncc(-c4cc(Nc5ccc(CN6C7CCC6CNC7)cn5)ncc4F)cc3n21 [Example 167, N-(5-((3,8-diazabicyclo[3,2,1]octan-8-yl)methyl)pyridin-2-yl)-4-(6,6-dimethyl-7,8-dihydro-6H-pyrrolo[1′,2′:1,2]imidazo[4,5-b]pyridin-3-yl)-5-fluoropyridin-2-amine]
pIC50 [2]: 7.00 to 8.00

Structure (SMILES): CN1CC2CCC(C1)N2Cc1ccc(Nc2cc(-c3cnc4nc5n(c4c3)C(C)(C)CC5)c(F)cn2)nc1 [Example 168, 4-(6,6-dimethyl-7,8-dihydro-6H-pyrrolo[1′,2′:1,2]imidazo[4,5-b]pyridin-3-yl)-5-fluoro-N-(5-((3-methyl-3,8-diazabicyclo[3.2.1]octan-8-yl)methyl)pyridin-2-yl)pyridin-2-amine]
pIC50 [2]: < 7.00

Structure (SMILES): CCN1CC2CCC(C1)N2Cc1ccc(Nc2cc(-c3cnc4nc5n(c4c3)C(C)(C)CC5)c(F)cn2)nc1 [Example 169, 4-(6,6-dimethyl-7,8-dihydro-6H-pyrrolo[1′,2′:1,2]imidazo[4,5-b]pyridin-3-yl)-N-(5-((3-ethyl-3,8-diazabicyclo[3.2.1]octan-8-yl)methyl)pyridin-2-yl)-5-fluoropyridin-2-amine]
pIC50 [2]: < 7.00
